Assay results reported in patent US11518764B2, “Substituted heteroaryls as inhibitors of the BCL6 BTB domain protein-protein interaction” (Ontario Institute for Cancer Research (OICR), priority 2018, dated 2022).
Like-named read-outs stand apart in the source and are kept apart here.

What was measured:
BCL6 BTB domain = BCL6 BTB domain (Homo sapiens (Human), UniProt P41182); assay: Surface plasmon resonance (SPR) assay; format: binding; settings: BCL6 BTB domain captured on SA chip, single cycle kinetics
Karpas422 cells = assay: Tumor cell growth inhibition assay; format: cell-based; settings: Homo sapiens, KARPAS-422, 144 h
Summary of the method: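 Karpas422 cells (2,000/well) in Alpha-MEM with 10% FBS dosed across 10 concentrations (top 5 uM) and grown six days at 37° C., 5% CO2. Viability read as ATPlite luminescence.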

[1] = system: BCL6 reporter construct (3xBCL6-TK-Luc) in SuDHL4 cells; assay: Cell-based luciferase assay
Summary of the method: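 SuDHL4 cells stably carrying a 3×BCL6-site TK-promoter firefly luciferase reporter, seeded at 15,000 cells/well, were dosed over a 10-point range (top 10 uM) and grown two days at 37 °C, 5% CO2. Luminescence then read after adding neolite reagent at room temperature.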

[2] = read-out: Tumor Growth Inhibition in Karpas-422 (IC50, uM), Karpas422 cells, six days, ATPlite
[3] = Homo sapiens, SU-DHL-4, 48 h, read-out: Luciferase-Assay EC50, uM), SuDHL4-3xBCL6-TK-Luc cells, two days, high dose 10 uM

Cn1cnc2c(c(-c3cc(F)c(O)c(C(N)=O)c3)cn2CC(=O)Nc2cc(N3CC4COCC4C3)ncc2Cl)c1=O (stereo not drawn) [Compound I-275]
Kd (BCL6 BTB domain): 4.76 nM | IC50 (Karpas422 cells; [2]): 0.137 µM | EC50 [1, 3]: 0.209 µM

CN1CCC2CN(c3cc(NC(=O)Cn4cc(-c5cc(F)c(O)c(C(N)=O)c5)c5c(=O)n(C)cnc54)c(Cl)cn3)CC21 (stereo not drawn) [Compound I-276]
Kd (BCL6 BTB domain): 33.1 nM | IC50 (Karpas422 cells; [2]): 0.355 µM | EC50 [1, 3]: 1.1 µM

Cn1cnc2c(c(-c3cc(Cl)c(O)c(C(N)=O)c3)cn2CC(=O)Nc2cc(N3CCOC4COCC43)ncc2Cl)c1=O (stereo not drawn) [Compound I-277]
Kd (BCL6 BTB domain): 21 nM | IC50 (Karpas422 cells; [2]): 0.255 µM | EC50 [1, 3]: 0.418 µM

Cn1cnc2c(c(-c3cc(Cl)c(O)c(C(N)=O)c3)cn2CC(=O)Nc2cc(N3CC4CCC(F)(F)C4C3)ncc2Cl)c1=O (stereo not drawn) [Compound I-278]
Kd (BCL6 BTB domain): 42.5 nM | IC50 (Karpas422 cells; [2]): 1.13 µM | EC50 [1, 3]: 0.622 µM

Cn1cnc2c(c(-c3cc(Cl)c(O)c(C(N)=O)c3)cn2CC(=O)Nc2cc(N3C4CCC3COC4)ncc2Cl)c1=O [Compound I-279]
Kd (BCL6 BTB domain): 10.2 nM | IC50 (Karpas422 cells; [2]): 0.197 µM | EC50 [1, 3]: 0.468 µM

Cn1cnc2c(c(-c3cc(Cl)c(O)c(C(N)=O)c3)cn2CC(=O)Nc2cc(N3CCOC4CCCC43)ncc2Cl)c1=O (stereo not drawn) [Compound I-280]
Kd (BCL6 BTB domain): 101 nM | IC50 (Karpas422 cells; [2]): 0.821 µM | EC50 [1, 3]: 1.4 µM

Cn1cnc2c(c(-c3cc(Cl)c(O)c(C(N)=O)c3)cn2CC(=O)Nc2cc(N3C4COCC5CC543)ncc2Cl)c1=O (stereo not drawn) [Compound I-281]
Kd (BCL6 BTB domain): 60.8 nM | IC50 (Karpas422 cells; Karpas422 cells, six days, ATPlite, read-out: Tumor Growth Inhibition in Karpas-422 (IC50)): 2.18 µM | EC50 ([1]; Homo sapiens, SU-DHL-4, 48 h, SuDHL4-3xBCL6-TK-Luc cells, two days, high dose 10 uM, read-out: Luciferase-Assay EC50): 2.88 µM

Cn1cnc2c(c(-c3cc(Cl)c(O)c(C(N)=O)c3)cn2CC(=O)Nc2cc(N3CC4CC(C3)O4)ncc2Cl)c1=O [Compound I-282]
Kd (BCL6 BTB domain): 21.3 nM | IC50 (Karpas422 cells; [2]): 0.489 µM | EC50 [1, 3]: 0.669 µM

CN1C2CCC1CN(c1cc(NC(=O)Cn3cc(-c4cc(F)c(O)c(C(N)=O)c4)c4c(=O)n(C)cnc43)c(Cl)cn1)C2 [Compound I-283]
Kd (BCL6 BTB domain): 16.7 nM | IC50 (Karpas422 cells; [2]): 0.282 µM | EC50 [1, 3]: 0.222 µM

Cn1cnc2c(c(-c3cc(F)c(O)c(C(N)=O)c3)cn2CC(=O)Nc2cc(N3CC4CC3CO4)ncc2Cl)c1=O (stereo not drawn) [Compound I-284]
Kd (BCL6 BTB domain): 23.4 nM | IC50 (Karpas422 cells; [2]): 0.75 µM | EC50 [1, 3]: 0.628 µM

CN1C2CCC1CN(c1cc(NC(=O)Cn3cc(-c4cc(C(N)=O)c(O)c(F)c4F)c4c(=O)n(C)cnc43)c(Cl)cn1)C2 [Compound I-285]
Kd (BCL6 BTB domain): 102 nM | IC50 (Karpas422 cells; [2]): 1.6 µM | EC50 [1, 3]: 1.6 µM

Cn1cnc2c(c(-c3cc(C(N)=O)c(O)c(F)c3F)cn2CC(=O)Nc2cc(N3CC4CC3CO4)ncc2Cl)c1=O (stereo not drawn) [Compound I-286]
Kd (BCL6 BTB domain): 83.7 nM | IC50 (Karpas422 cells; [2]): 1.54 µM | EC50 [1, 3]: 1.96 µM

CN1CC2CN(c3cc(NC(=O)Cn4cc(-c5cc(F)c(O)c(C(N)=O)c5)c5c(=O)n(C)cnc54)c(Cl)cn3)CC2C1 (stereo not drawn) [Compound I-287]
Kd (BCL6 BTB domain): 18.6 nM | IC50 (Karpas422 cells; [2]): 1.44 µM | EC50 [1, 3]: 1.71 µM

CN(C)c1cc(NC(=O)Cn2cc(-c3cc(F)c(O)c(C(N)=O)c3)c3c(=O)n(C)cnc32)c(Cl)cn1 [Compound I-288]
Kd (BCL6 BTB domain): 9.47 nM | IC50 (Karpas422 cells; [2]): 0.128 µM | EC50 [1, 3]: 0.181 µM

CN1CCCN(c2cc(NC(=O)Cn3cc(-c4cc(F)c(O)c(C(N)=O)c4)c4c(=O)n(C)cnc43)c(Cl)cn2)CC1 [Compound I-289]
Kd (BCL6 BTB domain): 16 nM | IC50 (Karpas422 cells; [2]): 0.652 µM | EC50 [1, 3]: 1.18 µM

COc1cc(NC(=O)Cn2cc(-c3cc(Cl)c(O)c(C(N)=O)c3)c3c(=O)n(C)c(O)nc32)c(Cl)cn1 [Compound I-290]
Kd (BCL6 BTB domain): 18400 nM | IC50 (Karpas422 cells; [2]): 10 µM | EC50 [1, 3]: 10 µM

CN(C)c1cc(NC(=O)Cn2cc(-c3cc(Cl)c(O)c(C(N)=O)c3)c3c(=O)n(C)c(Cl)nc32)c(Cl)cn1 [Compound I-292]
Kd (BCL6 BTB domain): 81.2 nM | IC50 (Karpas422 cells; [2]): 0.575 µM | EC50 [1, 3]: 1.66 µM

CN(C)c1cc(NC(=O)Cn2cc(-c3cc(Cl)c(O)c(C(N)=O)c3)c3c(=O)[nH]c(Cl)nc32)c(Cl)cn1 [Compound I-293]
Kd (BCL6 BTB domain): 18.3 nM | IC50 (Karpas422 cells; [2]): 2.44 µM | EC50 [1, 3]: 10 µM

C[C@H]1COCCN1c1cc(NC(=O)Cn2cc(-c3cc(Cl)c(O)c(C(N)=O)c3)c3c(=O)[nH]c(Cl)nc32)c(Cl)cn1 [Compound I-294]
Kd (BCL6 BTB domain): 9.95 nM | IC50 (Karpas422 cells; [2]): 1.88 µM | EC50 [1, 3]: 1.43 µM

CC(C)N1CCN(c2cc(NC(=O)Cn3cc(-c4cc(F)c(O)c(C(N)=O)c4)c4c(=O)n(C)cnc43)c(Cl)cn2)[C@@H](C)C1 [Compound I-295]
Kd (BCL6 BTB domain): 7.84 nM | IC50 (Karpas422 cells; [2]): 0.106 µM | EC50 [1, 3]: 0.14 µM

C[C@H]1CN(C2CC2)CCN1c1cc(NC(=O)Cn2cc(-c3cc(Cl)c(O)c(C(N)=O)c3)c3c(=O)n(C)cnc32)c(Cl)cn1 [Compound I-296]
Kd (BCL6 BTB domain): 33.4 nM | IC50 (Karpas422 cells; [2]): 0.209 µM | EC50 [1, 3]: 0.271 µM

CN(C)c1cc(NC(=O)Cn2cc(-c3cc(C(N)=O)c(O)c(F)c3F)c3c(=O)n(C)cnc32)c(Cl)cn1 [Compound I-297]
Kd (BCL6 BTB domain): 57.9 nM | IC50 (Karpas422 cells; [2]): 0.846 µM | EC50 [1, 3]: 0.395 µM

Cn1cnc2c(c(-c3cc(C(N)=O)c(O)c(F)c3F)cn2CC(=O)Nc2cc(N3CCCC3)ncc2Cl)c1=O [Compound I-298]
Kd (BCL6 BTB domain): 32.4 nM | IC50 (Karpas422 cells; [2]): 0.883 µM | EC50 [1, 3]: 0.399 µM

Cn1cnc2c(c(-c3cc(C(N)=O)c(O)c(F)c3F)cn2CC(=O)Nc2cc(N3CC4COCC4C3)ncc2Cl)c1=O (stereo not drawn) [Compound I-299]
Kd (BCL6 BTB domain): 31.4 nM | IC50 (Karpas422 cells; [2]): 0.685 µM | EC50 [1, 3]: 0.521 µM

C[C@H]1CN(CC2CC2)CCN1c1cc(NC(=O)Cn2cc(-c3cc(Cl)c(O)c(C(N)=O)c3)c3c(=O)n(C)cnc32)c(Cl)cn1 [Compound I-301]
Kd (BCL6 BTB domain): 19.6 nM | IC50 (Karpas422 cells; [2]): 0.252 µM | EC50 [1, 3]: 0.21 µM

C[C@H]1COCCN1c1cc(NC(=O)Cn2cc(-c3cc(C(N)=O)c(O)c4c3OCO4)c3c(=O)n(C)cnc32)c(Cl)cn1 [Compound I-302]
Kd (BCL6 BTB domain): 5.05 nM | IC50 (Karpas422 cells; [2]): 0.0528 µM | EC50 [1, 3]: 0.0865 µM

C[C@H]1CN(CC2CC2)CCN1c1cc(NC(=O)Cn2cc(-c3cc(F)c(O)c(C(N)=O)c3)c3c(=O)n(C)cnc32)c(Cl)cn1 [Compound I-303]
Kd (BCL6 BTB domain): 6.36 nM | IC50 (Karpas422 cells; [2]): 0.0323 µM | EC50 [1, 3]: 0.0493 µM

C[C@H]1CN(C)CCN1c1cc(NC(=O)Cn2cc(-c3cc(C(N)=O)c(O)c(F)c3F)c3c(=O)n(CC#Cc4cnn(C)c4)cnc32)c(Cl)cn1 [Compound I-304]
Kd (BCL6 BTB domain): 6.56 nM | IC50 (Karpas422 cells; [2]): 0.314 µM | EC50 [1, 3]: 0.228 µM
